Data reported in US10039776B2, “Hepato-protective beverage composition” (priority 2013, dated 2018).

How the values were obtained:
[1] = system: Male Wistar albino rats, alcohol induced sub-acute hepatotoxicity; experiment: Alcohol induced sub-acute hepatotoxicity in rats: evaluation of hepato-protective activity (% protection, % synergism); type: in vivo
Text: • 1. Hepato-protection: the ability to reduce stress and prevent damage to the liver. • 2. Synergistic hepato-protective effect: where the net hepato-protective effect of a combination is greater than the sum of the hepato-protective effects of the parts. • 3. Primary hepato-protective agent; 18α-Glycyrrhizin, 18β-Glycyrrhizin, or a combination thereof. • 4. Complimentary hepato-protective agent: sugar, sugar alcohol, or a combination thereof. • 5. Effective amount: the amount of each hepato-protective agent that must be included in a beverage to result in a net hepato-protective synergistic effect. Effective amounts include: • a. For 18α-Glycyrrhizin, a mass concentration range of 0.04% to 1.0%. • b. For 18β-Glycyrrhizin, a mass concentration range of 0.04% to 1.0%. • c. For sugar, a mass concentration range of 0.5% to 3.5%. • d. For sugar alcohol, a mass concentration range of 0.5% to 3.5%. • 6. Effective proportion: the proportional amount of how many units of complimentary hepato-protective agent should be added per unit of primary hepato-protective agent to result in a hepato-protective synergistic effect. An effective proportion is in the range of 1:2 to 175:2 (units of complimentary hepato-protective agent to units of primary hepato-protective agent). […] All animal experiments were conducted for a period of one month by per oral administration of 2.5 g/kg dose of alcohol.
The following tables 10 and 11 further illustrate hepatoprotective activity of the supplied alcoholic formulations in comparison with standard alcoholic drink in rat model, when fed orally for 4 weeks and also illustrate any synergistic effect of the ingredients. Hepatoprotection (HP) Calculation % Protection=1−[(T-NS)/(AL-NS)]×100 T=Mean value of drug treated, NS=Mean value of normal control, AL=Mean value of alcohol alone
Distilled ethanol was obtained from Bengal Chemicals, West Bengal, India, Biochemical kits like AST, ALT, ALKP and total protein were obtained from Span Diagnostics Ltd. Surat, India. Time course study of oxidative and nitrosative stress and antioxidant enzymes in K2Cr2O7-induced nephrotoxicity. BMC Nephrol., 6:4], TNF-α was estimated by standard procedures as mentioned in Rat TNF-α ELIS A kit (BioLegend, Inc. San Diego, Calif. USA).
Male Wistar albino rats weighing 150-200 g are procured from local registered traders (CPCSEA Regd No. 1443/po/6/4/CPCSEA), Kolkata, India, and were acclimatized for 7 days at standard housing condition (26° C.±2° C., 60-70% RFT with 12±1 hours light and dark cycle). Animals were fed with commercially available diet (Upton India Pvt. Ltd, India) and water ad-libitum during the experiment period.
Male Wistar albino rats weighing 150-200 g are procured and randomly divided into groups consisting of six animals in each group. Sub-acute toxicity is induced by alcohol in rats by oral administration of 25% alcohol (2.5 gm/kg/day, p.o.) for 28 days and this group served as the negative control and the positive control group received distilled water only.
All drug solutions were prepared in 15-40% aqueous alcohol, adjusting the pH in the range of 4.0-9.0 for evaluation of hepato-protective activity. This solution is further diluted with distilled water to obtain 25% aqueous alcoholic solution and administered orally by gavage to different rats group of step (a).
On day 28th day the animals are anaesthetized with ether and blood samples are collected by cardiac puncture and the serum is used for the assay of marker enzymes serum alanine aminotransferase (ALT), aspartate aminotransferase (AS′T), alkaline phosphatase (ALP). The rats are sacrificed by exposure to an overdose of ether, immediately after the collection of blood; their livers are removed, washed in cold saline. Part of the liver is used for preparation of liver homogenate in phosphate buffer (pH 7.4). […]

[2] = cited from earlier work
[3] = system: superoxide dismutase (SOD); settings: erythritol-added group; cited from earlier work
[4] = sugar alcohol or sugar alone at 1%, alcohol 2.5 g/kg p.o. one month
[5] = sugar alcohol or sugar alone at 2.5%, alcohol 2.5 g/kg p.o. one month

| Molecule | ALT etc % Prot. [1, 4] [%] | GSH % Prot. [1, 4] [%] | MDA % Prot. [1, 4] [%] | SOD etc % Prot. [1, 4] [%] | TNF-α % Prot. [1, 4] [%] | ALT etc % Prot. [1, 5] [%] | GSH % Prot. [1, 5] [%] | MDA % Prot. [1, 5] [%] | SOD etc % Prot. [1, 5] [%] | TNF-α % Prot. [1, 5] [%] | also measured |
| --- | --- | --- | --- | --- | --- | --- | --- | --- | --- | --- | --- |
| OC[C@@H](O)[C@H](O)[C@@H](O)CO [Xyl, D-Xylitol] | 17.62 | 19.76 | 26.9 | 18.91 | 15.77 | 26.72 | 35.57 | 45.38 | 36.88 | 30.05 |  |
| OC[C@@H](O)[C@@H](O)CO [Ery, D-Erythritol] | 17.84 | 18.71 | 24.71 | 17.94 | 16.57 | 32.13 | 37.29 | 48.61 | 36.29 | 35.96 |  |
| OC[C@@H](O)[C@@H](O)[C@H](O)[C@H](O)CO [Sample Code C, D-Mannitol] |  |  |  |  |  |  |  |  |  |  | TNF-α % Prot. ([1]; alcohol 2.5 g/kg/day p.o. 28 days, composition fixed by sample/example, listed as 3): 16.74%; TNF-α % Prot. ([1]; alcohol 2.5 g/kg/day p.o. 28 days, composition fixed by sample/example, listed as Example 3): 31.46%; GSH % Prot. ([1]; alcohol 2.5 g/kg/day p.o. 28 days, liver homogenate, composition fixed by sample/example, listed as 3): 20.06%; GSH % Prot. ([1]; alcohol 2.5 g/kg/day p.o. 28 days, liver homogenate, composition fixed by sample/example, listed as Example 3): 31.53%; MDA % Prot. ([1]; hepatic MDA, alcohol 2.5 g/kg/day p.o. 28 days, composition fixed by sample/example, listed as 3): 31.63%; MDA % Prot. ([1]; hepatic MDA, alcohol 2.5 g/kg/day p.o. 28 days, composition fixed by sample/example, listed as Example 3): 50.80%; SOD etc % Prot. ([1]; mean of SOD, CAT and GPx, alcohol 2.5 g/kg/day p.o. 28 days, composition fixed by sample/example, listed as 3): 19.32%; SOD etc % Prot. ([1]; mean of SOD, CAT and GPx, alcohol 2.5 g/kg/day p.o. 28 days, composition fixed by sample/example, listed as Example 3): 35.83%; ALT etc % Prot. ([1]; mean of serum ALT, AST and ALKP, alcohol 2.5 g/kg/day p.o. 28 days, composition fixed by sample/example, listed as 3): 70.37%; ALT etc % Prot. ([1]; mean of serum ALT, AST and ALKP, alcohol 2.5 g/kg/day p.o. 28 days, composition fixed by sample/example, listed as Example 3): 29.71% |
| OC[C@@H](O)[C@@H](O)[C@H](O)[C@H](O)CO [Sample Code A, D-Mannitol] |  |  |  |  |  |  |  |  |  |  | TNF-α % Prot. ([1]; alcohol 2.5 g/kg/day p.o. 28 days, composition fixed by sample/example, listed as Example 2): 7.19%; GSH % Prot. ([1]; alcohol 2.5 g/kg/day p.o. 28 days, liver homogenate, composition fixed by sample/example, listed as Example 2): 10.35%; MDA % Prot. ([1]; hepatic MDA, alcohol 2.5 g/kg/day p.o. 28 days, composition fixed by sample/example, listed as Example 2): 19.17%; SOD etc % Prot. ([1]; mean of SOD, CAT and GPx, alcohol 2.5 g/kg/day p.o. 28 days, composition fixed by sample/example, listed as Example 2): 12.71%; ALT etc % Prot. ([1]; mean of serum ALT, AST and ALKP, alcohol 2.5 g/kg/day p.o. 28 days, composition fixed by sample/example, listed as Example 2): 12.26% |
| OC[C@H]1O[C@@](CO)(O[C@H]2O[C@H](CO)[C@@H](O)[C@H](O)[C@H]2O)[C@@H](O)[C@@H]1O [Suc, Sucrose] | 6.70 | 6 | 8.27 | 5.16 | 6.13 | 13.89 | 11.63 | 18.92 | 10.49 | 14.18 |  |
| CCO [ethanol] |  |  |  |  |  |  |  |  |  |  | time to peak blood alcohol concentration ([2]; fasting state): ≤ 30 min; ingested alcohol degraded to acetaldehyde ([2]; human being): 95%; ingested alcohol excreted unchanged ([2]; human being): 5%; share of alcohol metabolism accounted for by liver ([2]; in vivo): ~90%; alcohol metabolized per hour ([2]; typical adult, printed 'g of alcohol, hour'): 7 to 10 g |
| 18β-Glycyrrhizin [Sample Code D] |  |  |  |  |  |  |  |  |  |  | TNF-α % Prot. ([1]; alcohol 2.5 g/kg/day p.o. 28 days, composition fixed by sample/example, listed as Example 4): 7.64%; GSH % Prot. ([1]; alcohol 2.5 g/kg/day p.o. 28 days, liver homogenate, composition fixed by sample/example, listed as Example 4): 3.29%; MDA % Prot. ([1]; hepatic MDA, alcohol 2.5 g/kg/day p.o. 28 days, composition fixed by sample/example, listed as Example 4): 15.97%; SOD etc % Prot. ([1]; mean of SOD, CAT and GPx, alcohol 2.5 g/kg/day p.o. 28 days, composition fixed by sample/example, listed as Example 4): 11.45%; ALT etc % Prot. ([1]; mean of serum ALT, AST and ALKP, alcohol 2.5 g/kg/day p.o. 28 days, composition fixed by sample/example, listed as Example 4): 8.38% |
| OC[C@H]1O[C@@H](O[C@H]2[C@H](O)[C@@H](O)C(O)O[C@@H]2CO)[C@H](O)[C@@H](O)[C@H]1O (stereo partly drawn) [Lac, Lactose] | 8.21 | 4.36 | 7.70 | 6.78 | 8.19 | 17.41 |  | 21.47 | 17.38 | 15.26 |  |
| OC[C@@H](O)[C@@H](O)CO [erythritol] |  |  |  |  |  |  |  |  |  |  | increase of SOD activity [3]: 2-5 times |
| O=C[C@H](O)[C@@H](O)[C@H](O)CO [Xyls, Xylose] | 8.06 | 6.23 | 6.28 | 7.83 | 6.44 | 14.73 | 11.84 | 15.38 | 19.1 | 13.98 |  |
